These results are taken from PubChem BioAssay (NCI).

Common to all, as to experiment: NCI-60 cell line screen, 48 h
In experiment [1] the test system is A498 renal.
The test system of experiment [2] is HCC-2998 colon.
The test system of experiment [3] is IGROV1 ovarian.
Experiment [4] deals with NCI-H460 lung.
Experiment [5] concerns NCI-H522 lung.
For experiment [6], the system named is SF-539 CNS.
The test system of experiment [7] is SNB-75 CNS.
Experiment [8] relates to SW-620 colon.
The subject of experiment [9] is TK-10 renal.
The subject of experiment [10] is LOX IMVI melanoma.
For experiment [11], the system named is MDA-N.
Experiment [12] has as its system PC-3 prostate.

Each structure is given as a SMILES string.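 96-well plates; 48 h exposure; 5 concentrations. Endpoints by linear interpolation between flanking doses. Not reached: highest tested concentration assigned. GI50 = concentration required for 50% inhibition of growth. TGI: total growth inhibition.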

Regarding `CON(C)C(=O)C(Cc1ccccc1)NC(=O)OCc1ccccc1` (centres undefined), the TGI in [1], in experiment [2], in [3], in [4], in experiment [5] and in experiment [6] was above 100 µM each time. Besides, the TGI in experiment [7], in [8] and in [9] was above 100 µM throughout.
For the molecule `Cc1ccc(C(=O)OC(C(=O)O)C(OC(=O)c2ccc(C)cc2)C(=O)O)cc1` (centres undefined) (tested in a mixture with another compound), the TGI was found to be 24.5 µM in experiment [1]; 10.1 µM in [2]; 26.5 µM in experiment [3]; 20.6 µM in [10]; 10.3 µM in experiment [4]; 11.4 µM in [5]. Further, the TGI in experiment [6] amounted to 25.2 µM; in [7], 14.8 µM; in experiment [8], 10.2 µM.
Consider `C[C@]12c3c4cc(NC(=O)C(=O)NCc5ccc(-c6ccccn6)nc5)cc3Oc3cc(NC(=O)C(=O)NCc5ccc(-c6ccccn6)nc5)cc(c31)OC1C=C(NC(=O)C(=O)NCc3ccc(-c5ccccn5)nc3)C=C(O4)C12` (some centres undefined), for which the TGI in experiment [3] is 40.6 µM; in experiment [10], 70.4 µM; in [11], above 100 µM; in experiment [4] it was above 100 µM; in experiment [5] it was above 100 µM; in experiment [12], above 100 µM. The TGI was above 100 µM in [6], 76.3 µM in experiment [7], above 100 µM in [8] and above 100 µM in experiment [9].
Turning to `O=S(=O)(O)c1cc(N=Nc2c(O)ccc3ccccc23)cc2c(S(=O)(=O)O)cccc12`, the TGI in [1], in experiment [2], in experiment [3], in experiment [4], in experiment [5] and in experiment [12] was above 100 µM in each case. Further, the TGI in [6], in [7], in [8] and in experiment [9] was above 100 µM throughout.
As for `COc1cc(OCCN(C)C)c2[nH]c(C(=O)N3CC(CCl)c4ccc(N)cc43)cc2c1` (centres undefined), the TGI in experiment [1] was found to be 0.508 µM; in experiment [2], 0.297 µM; in experiment [12] it was 1.34 µM; in experiment [7] it was 0.565 µM; in experiment [9], 1.09 µM.
With `COc1cccc(-c2cc(=O)c3cc(N4CCCCC4)ccc3[nH]2)c1`, the TGI in [1] was above 100 µM; in [3] it was above 100 µM; in [10], above 100 µM; in experiment [5] it was above 21 µM; in experiment [12], above 100 µM; in experiment [6], 0.0139 µM. Besides, the TGI in [8] and in experiment [9] was above 100 µM in each case.
For `Oc1ccc(NCn2c(=S)sc3ccccc32)cc1`, the TGI was above 100 µM in experiment [1]; above 100 µM in [2]; above 100 µM in [3]; above 100 µM in experiment [10]; above 100 µM in experiment [4]; 40.5 µM in experiment [5]. In addition, the TGI in experiment [12], in experiment [6], in [7], in experiment [8] and in experiment [9] was above 100 µM throughout.
As to `COc1cc(-c2cccs2)sc1-c1cccs1`, the TGI in experiment [2], in [3], in experiment [10], in [4], in [5] and in [6] was above 100 µM in each case. The values for the TGI in experiment [7], in [8] and in experiment [9] were 66.5 µM, above 100 µM and above 100 µM, respectively.
With `CON(C)C(=O)C(C)N(Cc1ccccc1)Cc1ccccc1` (centres undefined), the TGI in experiment [1], in experiment [2], in [3], in experiment [11], in experiment [4] and in experiment [12] was above 100 µM each time. Also, the TGI in [6], in experiment [7], in experiment [8] and in experiment [9] was above 100 µM in each case.
Turning to `C/C(=N\NC(N)=S)c1ccc2c(c1)Sc1ccccc1O2`, the TGI was determined as 8.63 µM in experiment [1]; 4.65 µM in experiment [2]; 13.1 µM in experiment [10]; 2.31 µM in experiment [11]; 11.8 µM in experiment [4]; 28.8 µM in experiment [12]. The TGI was 4.79 µM in experiment [6], 7.21 µM in experiment [7], above 100 µM in experiment [8] and 30.7 µM in [9].
Take `Cc1ccc2nc(-c3ccccc3)cc(=O)n2c1`: the TGI in experiment [2], in [3], in [11], in experiment [4], in experiment [5] and in [12] was above 100 µM each time. Also, the TGI in experiment [6], in [7], in [8] and in experiment [9] was above 100 µM throughout.
For `O=c1cc(-c2ccc3c(c2)OCO3)[nH]c2cc3c(cc12)OCO3`, the TGI in [2] is above 100 µM; in [3], above 100 µM; in experiment [10], above 100 µM; in [4], above 100 µM; in experiment [5], above 100 µM; in experiment [6], 69.1 µM. Further, the values for the TGI in experiment [7], in experiment [8] and in experiment [9] were 13.7 µM, above 100 µM and above 100 µM, respectively.
Turning to `CC1NC(=O)C(C)C(c2ccccc2)N(N=O)C1c1ccccc1` (centres undefined), the TGI in experiment [1], in experiment [2], in [3], in experiment [10], in experiment [4] and in experiment [5] was above 100 µM throughout. Besides, the TGI in experiment [6] is above 100 µM; in experiment [7], above 79.3 µM; in experiment [8], above 100 µM.
For `C(=C/CCCN1O[C@@H](CCCCCCCCc2cccnc2)[C@H]2CCC[C@H]21)/CCCCCCCCCc1cccnc1`, the TGI in experiment [1] turned out to be 45.5 µM; in experiment [3], 79.4 µM; in experiment [10] it was 35.3 µM; in [11], 71.9 µM; in experiment [4] it was 39.2 µM; in experiment [12] it was 46.1 µM. Also, the TGI was 34.9 µM in experiment [6], 51.4 µM in experiment [7], 91.8 µM in experiment [8] and 38.4 µM in [9].
For `COC(=O)[C@]1(C)CCC[C@@]2(C)C1CC[C@@]13C=C(C(C)C)[C@@H](CC1=O)CC23` (some centres undefined), the TGI in experiment [2] is above 100 µM; in experiment [3], above 100 µM; in experiment [11] it was above 100 µM; in [4] it was above 100 µM; in [5] it was 38.5 µM; in experiment [12], above 100 µM. Moreover, the TGI is 37.5 µM in [6], above 100 µM in experiment [7], 83.6 µM in [8] and above 100 µM in experiment [9].
As to `CCn1cnc2c(=S)nc(N)[nH]c21`, the TGI in experiment [2], in experiment [3], in experiment [10], in experiment [4], in experiment [5] and in experiment [6] was above 100 µM throughout. For the same molecule, the TGI in experiment [7], in experiment [8] and in experiment [9] was above 100 µM each time.
On to `COc1cc(/C=C2\CN(S(=O)(=O)c3ccc(C)cc3)C/C(=C\c3cc(CN4CCCC4)c(O)c(OC)c3)C2=O)cc(CN2CCCC2)c1O`, for which the GI50 in experiment [2] was 1.64 µM; in [10], 0.649 µM; in experiment [5], 0.433 µM; in experiment [12], 1.56 µM; in experiment [6], 1.6 µM; in experiment [7], 1.1 µM. Further, the GI50 in [9] is 1.86 µM. Also, the TGI in experiment [2] stood at 3.08 µM; in experiment [10], 2.02 µM; in experiment [5], 2.3 µM; in [12] it was 3.67 µM; in experiment [6] it was 3.1 µM; in experiment [7], 2.56 µM. Further, in experiment [9], the TGI is 3.49 µM.
Regarding `CCOC(=O)c1cc(-c2ccc(OC)cc2)c([N+](=O)[O-])n1C`, the TGI in [2], in experiment [3], in [11], in experiment [4], in experiment [5] and in experiment [6] was above 10 µM each time. In experiment [7], this molecule returned a TGI above 10 µM.
For the molecule `CCNC(=O)c1ccc(C)c(N=NN(C)C)c1`, the TGI in experiment [2], in experiment [3], in [10], in [4], in experiment [5] and in experiment [6] was above 100 µM throughout. The TGI in [8] and in [9] was above 100 µM each time.
`CCOC(=O)c1csc(NC(=O)CN2CCCC2)n1`: the TGI in experiment [1], in experiment [2], in [3], in experiment [10], in experiment [11] and in experiment [4] was above 100 µM throughout. Besides, the TGI in experiment [12], in [6], in experiment [7], in [8] and in [9] was above 100 µM throughout.
Take `CC(C)C(NC(=O)Oc1ccccc1)C(=O)NC1c2c(Br)sc(Br)c2C(=O)C1O` (centres undefined): the TGI in experiment [1] was above 25 µM; in experiment [2], 7.68 µM; in [3] it was 8.11 µM; in experiment [10], 8.91 µM; in experiment [11], above 25 µM; in experiment [4], 8.64 µM. For the same molecule, the TGI is above 25 µM in experiment [12]; above 25 µM in [6]; above 25 µM in [7]; 11.1 µM in experiment [8]; above 25 µM in experiment [9].
Consider `O=C(CC1Sc2ccccc2NC1=O)Nc1ccccc1[N+](=O)[O-]` (centres undefined), for which the TGI is above 100 µM in experiment [1]; above 100 µM in experiment [2]; above 100 µM in experiment [3]; above 100 µM in [10]; above 100 µM in experiment [4]; 32.8 µM in experiment [5]. The TGI in experiment [6], in experiment [7], in experiment [8] and in experiment [9] was above 100 µM each time.
For `COc1cc2c(/C=C3/C(=O)Nc4cccc(Cl)c43)c(Cl)[nH]c2cc1C`, the TGI in experiment [1] is 20.7 µM; in experiment [3], 11.8 µM; in [10], 3.68 µM; in [4] it was 3.78 µM; in experiment [5] it was 6.74 µM; in [12] it was 11.8 µM. Moreover, the TGI in [6] turned out to be 3.38 µM; in experiment [7], 4.03 µM; in [8], 5.25 µM; in [9], 3.58 µM.
As for `CCOC(=O)c1nnn(CCCCO)c1C(=O)OCC`, the TGI in experiment [2], in experiment [3], in [10], in experiment [11], in experiment [4] and in [12] was above 100 µM throughout. Also, the TGI in [6], in [7], in [8] and in [9] was above 100 µM throughout.
Regarding `COc1ccc(C2Oc3cc(OC)c(OC)cc3C2CCl)cc1OC` (centres undefined), the TGI in experiment [1], in [2], in [10], in experiment [4], in [5] and in experiment [6] was above 100 µM throughout. Besides, the TGI in [7], in experiment [8] and in [9] was above 100 µM throughout.
With `Cc1ccc(Nc2nc(NNC(=O)Cc3ccccc3)nc(NNC(=O)c3ccncc3)n2)cc1`, the TGI in experiment [1], in experiment [2], in experiment [3], in experiment [10], in experiment [11] and in experiment [4] was above 10 µM each time. Also, the TGI in [6], in [7], in experiment [8] and in experiment [9] was above 10 µM throughout.
Take `CCOC(=O)C12OC(OCC)(CC1(OCC)OCC)C1(CC1)C2=O` (centres undefined): the TGI in experiment [1], in experiment [2], in [3], in [10], in experiment [11] and in experiment [4] was above 100 µM each time. Also, the TGI in [12], in experiment [6], in [7], in experiment [8] and in experiment [9] was above 100 µM in each case.
